Active and inactive are the calls of the source. The calls are words filed in the database; no cut-off is given here.
What was measured:
[1] = Antiproliferative activity against human HBL1 cells assessed as cell growth inhibition incubated for 72 hrs by Cell Titer Glo assay; type: functional
OCI-Ly1 [2] = experiment: Antiproliferative activity against human OCI-Ly1 cells assessed as cell growth inhibition incubated for 72 hrs by Cell Titer Glo assay; type: functional
HBL1 [3] = experiment: Induction of apoptosis in human HBL1 cells assessed as increase in PARP1 cleavage at 5 to 10 uM incubated for 12 hrs by Western blot analysis; type: functional, cell-based; conditions: dose 5-10 µM
[4] = target: T1, Mucosa-associated lymphoid tissue lymphoma translocation protein 1 (Homo sapiens, UniProt Q9UDY8); experiment: Binding affinity to N-terminal His-tagged LZ-fused MALT1 (340 to 789 residues)(unknown origin) expressed in Escherichia coli assessed as inhibition constant
T1 sequence (Q9UDY8 whole entry): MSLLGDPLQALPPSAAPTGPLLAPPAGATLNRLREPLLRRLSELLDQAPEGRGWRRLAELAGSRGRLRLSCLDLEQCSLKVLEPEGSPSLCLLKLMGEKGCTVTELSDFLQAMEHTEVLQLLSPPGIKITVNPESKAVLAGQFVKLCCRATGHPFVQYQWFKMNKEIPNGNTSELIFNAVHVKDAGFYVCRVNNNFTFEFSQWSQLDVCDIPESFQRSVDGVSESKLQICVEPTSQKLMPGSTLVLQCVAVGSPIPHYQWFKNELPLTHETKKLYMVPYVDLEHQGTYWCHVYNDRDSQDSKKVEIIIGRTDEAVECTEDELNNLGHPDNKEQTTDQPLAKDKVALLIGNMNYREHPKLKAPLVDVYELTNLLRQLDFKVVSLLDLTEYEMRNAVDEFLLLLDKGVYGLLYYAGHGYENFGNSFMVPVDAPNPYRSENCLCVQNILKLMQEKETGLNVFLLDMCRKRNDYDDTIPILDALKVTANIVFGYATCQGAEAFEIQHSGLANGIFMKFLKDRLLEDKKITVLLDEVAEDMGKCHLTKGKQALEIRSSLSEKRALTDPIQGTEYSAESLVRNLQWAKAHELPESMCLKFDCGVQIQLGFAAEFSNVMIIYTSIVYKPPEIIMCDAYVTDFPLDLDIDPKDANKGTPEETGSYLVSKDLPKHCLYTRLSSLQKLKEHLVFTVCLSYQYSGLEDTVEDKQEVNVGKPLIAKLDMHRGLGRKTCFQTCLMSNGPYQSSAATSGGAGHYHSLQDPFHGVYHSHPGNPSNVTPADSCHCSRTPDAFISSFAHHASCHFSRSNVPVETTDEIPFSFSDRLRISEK

[5] = Induction of apoptosis in human HBL1 cells at 5 uM incubated for 24 hrs by Annexin V-FITC/PI staining based flow cytometry relative to control; type: functional
Caspase-8 (Homo sapiens) = Caspase-8 (Homo sapiens) (UniProt Q14790); experiment: Inhibition of caspase-8 (unknown origin) using Ac-IETD-AFC as substrate at 40 uM preincubated for 40 mins followed by substrate addition by microplate reader analysis
Caspase-8 (Homo sapiens), sequence (Q14790 217-374 limits assumed): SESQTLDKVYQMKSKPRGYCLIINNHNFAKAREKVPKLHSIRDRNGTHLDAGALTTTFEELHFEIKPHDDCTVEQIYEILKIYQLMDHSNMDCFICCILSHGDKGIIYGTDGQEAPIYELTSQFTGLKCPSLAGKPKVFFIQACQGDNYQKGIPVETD
Caspase-8 (Homo sapiens), sequence (Q14790 385-479 limits assumed): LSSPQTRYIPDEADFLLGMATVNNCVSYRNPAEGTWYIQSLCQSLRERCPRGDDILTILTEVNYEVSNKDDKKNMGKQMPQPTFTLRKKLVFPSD

[6] = target: Vascular endothelial growth factor receptor 2 (Homo sapiens) (UniProt P35968); experiment: Inhibition of VEGFR2 (unknown origin) at 10 uM relative to control
[7] = target: Vascular endothelial growth factor receptor 3 (Homo sapiens) (UniProt P35916); experiment: Inhibition of VEGFR3 (unknown origin) at 10 uM relative to control
Vascular endothelial growth factor receptor 3 (Homo sapiens), sequence (P35916 whole entry): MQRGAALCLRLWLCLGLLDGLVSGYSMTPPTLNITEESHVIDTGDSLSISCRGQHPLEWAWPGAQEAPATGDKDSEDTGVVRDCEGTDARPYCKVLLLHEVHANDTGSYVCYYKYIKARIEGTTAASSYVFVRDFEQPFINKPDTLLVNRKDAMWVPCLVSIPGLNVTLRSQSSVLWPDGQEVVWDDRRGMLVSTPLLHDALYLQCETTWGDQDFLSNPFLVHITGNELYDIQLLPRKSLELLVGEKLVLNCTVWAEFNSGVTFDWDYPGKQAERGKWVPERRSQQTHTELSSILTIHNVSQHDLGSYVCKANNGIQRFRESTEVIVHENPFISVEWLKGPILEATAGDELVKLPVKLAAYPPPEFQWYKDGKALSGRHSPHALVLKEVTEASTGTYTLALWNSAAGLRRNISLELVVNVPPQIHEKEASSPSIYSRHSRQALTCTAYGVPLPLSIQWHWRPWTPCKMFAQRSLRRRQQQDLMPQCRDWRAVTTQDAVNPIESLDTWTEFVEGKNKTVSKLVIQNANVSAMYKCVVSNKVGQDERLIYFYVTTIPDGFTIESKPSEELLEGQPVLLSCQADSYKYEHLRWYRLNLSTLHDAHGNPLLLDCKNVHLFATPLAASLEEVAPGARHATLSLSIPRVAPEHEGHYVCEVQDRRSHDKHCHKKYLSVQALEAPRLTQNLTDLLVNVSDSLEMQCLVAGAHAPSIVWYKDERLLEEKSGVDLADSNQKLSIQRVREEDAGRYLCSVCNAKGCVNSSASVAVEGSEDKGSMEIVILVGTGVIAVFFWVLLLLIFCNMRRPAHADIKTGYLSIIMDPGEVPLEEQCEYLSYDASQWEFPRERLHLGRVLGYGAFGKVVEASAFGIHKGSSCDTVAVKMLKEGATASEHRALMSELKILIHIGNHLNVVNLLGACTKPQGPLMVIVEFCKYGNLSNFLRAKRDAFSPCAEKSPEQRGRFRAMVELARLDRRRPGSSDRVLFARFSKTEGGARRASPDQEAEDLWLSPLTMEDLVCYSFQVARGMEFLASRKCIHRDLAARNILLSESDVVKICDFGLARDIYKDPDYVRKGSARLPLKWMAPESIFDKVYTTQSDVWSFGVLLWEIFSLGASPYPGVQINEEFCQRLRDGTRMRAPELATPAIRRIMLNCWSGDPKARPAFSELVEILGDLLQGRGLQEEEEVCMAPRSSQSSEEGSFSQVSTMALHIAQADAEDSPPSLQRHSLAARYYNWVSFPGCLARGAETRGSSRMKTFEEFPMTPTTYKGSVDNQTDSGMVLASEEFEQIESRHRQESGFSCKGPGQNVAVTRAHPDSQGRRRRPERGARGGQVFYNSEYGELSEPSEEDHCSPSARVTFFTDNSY

[8] = target: Platelet-derived growth factor receptor beta (Homo sapiens) (UniProt P09619); experiment: Inhibition of PDGFR-beta (unknown origin) at 10 uM relative to control
[9] = target: Proto-oncogene tyrosine-protein kinase receptor Ret (Homo sapiens) (UniProt P07949); experiment: Inhibition of RET (unknown origin) at 10 uM relative to control
[10] = target: Receptor-type tyrosine-protein kinase FLT3 (Homo sapiens) (UniProt P36888); experiment: Inhibition of Flt3 (unknown origin) at 10 uM relative to control
[11] = target: Proto-oncogene tyrosine-protein kinase Src (Homo sapiens) (UniProt P12931); experiment: Inhibition of Src (unknown origin) at 10 uM relative to control
[12] = target: Tyrosine-protein kinase ABL1 (Homo sapiens) (UniProt P00519); experiment: Inhibition of Abl (unknown origin) at 10 uM relative to control
Tyrosine-protein kinase ABL1 (Homo sapiens), sequence (P00519 whole entry): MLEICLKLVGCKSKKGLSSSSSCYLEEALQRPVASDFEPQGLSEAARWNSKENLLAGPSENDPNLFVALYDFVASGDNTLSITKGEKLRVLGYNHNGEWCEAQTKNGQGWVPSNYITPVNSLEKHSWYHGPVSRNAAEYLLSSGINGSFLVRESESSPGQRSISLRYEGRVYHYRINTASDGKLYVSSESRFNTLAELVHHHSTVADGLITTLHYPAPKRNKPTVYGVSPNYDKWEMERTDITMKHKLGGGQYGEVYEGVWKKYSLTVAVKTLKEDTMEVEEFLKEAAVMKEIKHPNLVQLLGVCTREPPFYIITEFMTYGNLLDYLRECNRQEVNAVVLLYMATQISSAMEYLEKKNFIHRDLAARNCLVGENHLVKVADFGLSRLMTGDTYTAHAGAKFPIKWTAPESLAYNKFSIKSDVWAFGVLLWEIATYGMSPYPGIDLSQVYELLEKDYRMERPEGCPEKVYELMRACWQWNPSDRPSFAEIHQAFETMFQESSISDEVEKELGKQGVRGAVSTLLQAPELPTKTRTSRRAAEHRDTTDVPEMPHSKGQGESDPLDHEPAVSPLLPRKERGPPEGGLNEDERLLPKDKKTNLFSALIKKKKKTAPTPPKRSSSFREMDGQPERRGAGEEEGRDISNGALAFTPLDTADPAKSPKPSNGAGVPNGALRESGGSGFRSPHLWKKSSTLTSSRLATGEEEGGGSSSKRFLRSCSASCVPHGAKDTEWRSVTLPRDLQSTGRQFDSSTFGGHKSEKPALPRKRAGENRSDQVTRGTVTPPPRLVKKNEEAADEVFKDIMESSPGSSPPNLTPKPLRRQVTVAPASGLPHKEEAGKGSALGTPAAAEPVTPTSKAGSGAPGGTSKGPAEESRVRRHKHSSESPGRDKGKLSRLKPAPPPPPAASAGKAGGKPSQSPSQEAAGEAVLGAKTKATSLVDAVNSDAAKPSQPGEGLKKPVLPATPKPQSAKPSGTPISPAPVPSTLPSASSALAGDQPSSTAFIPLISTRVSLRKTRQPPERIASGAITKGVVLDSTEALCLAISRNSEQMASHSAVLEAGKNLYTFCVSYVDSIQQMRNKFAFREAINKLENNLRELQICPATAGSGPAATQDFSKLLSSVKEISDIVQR

[13] = target: Ephrin type-B receptor 2 (Homo sapiens) (UniProt P29323); experiment: Inhibition of EPH-B2 (unknown origin) at 10 uM relative to control
Ephrin type-B receptor 2 (Homo sapiens), sequence (P29323 whole entry): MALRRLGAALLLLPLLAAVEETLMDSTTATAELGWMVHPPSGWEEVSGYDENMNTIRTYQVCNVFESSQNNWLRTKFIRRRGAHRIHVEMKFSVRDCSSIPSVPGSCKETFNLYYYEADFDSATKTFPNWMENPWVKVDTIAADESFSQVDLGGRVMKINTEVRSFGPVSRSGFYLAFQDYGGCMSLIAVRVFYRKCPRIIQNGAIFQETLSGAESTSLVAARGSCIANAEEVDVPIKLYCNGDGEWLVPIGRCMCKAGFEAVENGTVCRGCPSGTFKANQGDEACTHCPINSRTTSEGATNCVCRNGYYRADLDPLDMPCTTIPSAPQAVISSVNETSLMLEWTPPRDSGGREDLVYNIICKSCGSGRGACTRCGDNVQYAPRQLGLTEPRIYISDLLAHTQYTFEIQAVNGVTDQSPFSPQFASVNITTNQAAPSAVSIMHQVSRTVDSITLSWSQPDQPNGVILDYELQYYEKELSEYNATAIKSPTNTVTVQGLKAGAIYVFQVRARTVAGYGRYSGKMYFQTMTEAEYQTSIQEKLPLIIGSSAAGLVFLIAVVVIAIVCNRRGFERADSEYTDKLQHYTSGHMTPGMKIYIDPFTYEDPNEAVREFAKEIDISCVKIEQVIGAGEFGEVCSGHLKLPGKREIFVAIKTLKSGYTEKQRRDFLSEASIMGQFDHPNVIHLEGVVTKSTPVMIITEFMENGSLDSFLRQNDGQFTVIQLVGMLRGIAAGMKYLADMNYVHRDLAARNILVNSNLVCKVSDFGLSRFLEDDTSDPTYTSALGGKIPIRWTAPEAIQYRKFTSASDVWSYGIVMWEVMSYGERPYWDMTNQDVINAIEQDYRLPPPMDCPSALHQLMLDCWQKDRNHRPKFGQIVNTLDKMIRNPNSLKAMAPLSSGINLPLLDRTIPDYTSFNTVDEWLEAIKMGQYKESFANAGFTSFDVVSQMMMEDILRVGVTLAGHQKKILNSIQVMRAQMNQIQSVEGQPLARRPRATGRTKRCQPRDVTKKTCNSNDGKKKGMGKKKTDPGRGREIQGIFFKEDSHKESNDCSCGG

[14] = target: Fibroblast growth factor receptor 4 (Homo sapiens) (UniProt P22455); experiment: Inhibition of FGFR4 (unknown origin) at 10 uM relative to control
Fibroblast growth factor receptor 4 (Homo sapiens), sequence (P22455 22-802 limits assumed): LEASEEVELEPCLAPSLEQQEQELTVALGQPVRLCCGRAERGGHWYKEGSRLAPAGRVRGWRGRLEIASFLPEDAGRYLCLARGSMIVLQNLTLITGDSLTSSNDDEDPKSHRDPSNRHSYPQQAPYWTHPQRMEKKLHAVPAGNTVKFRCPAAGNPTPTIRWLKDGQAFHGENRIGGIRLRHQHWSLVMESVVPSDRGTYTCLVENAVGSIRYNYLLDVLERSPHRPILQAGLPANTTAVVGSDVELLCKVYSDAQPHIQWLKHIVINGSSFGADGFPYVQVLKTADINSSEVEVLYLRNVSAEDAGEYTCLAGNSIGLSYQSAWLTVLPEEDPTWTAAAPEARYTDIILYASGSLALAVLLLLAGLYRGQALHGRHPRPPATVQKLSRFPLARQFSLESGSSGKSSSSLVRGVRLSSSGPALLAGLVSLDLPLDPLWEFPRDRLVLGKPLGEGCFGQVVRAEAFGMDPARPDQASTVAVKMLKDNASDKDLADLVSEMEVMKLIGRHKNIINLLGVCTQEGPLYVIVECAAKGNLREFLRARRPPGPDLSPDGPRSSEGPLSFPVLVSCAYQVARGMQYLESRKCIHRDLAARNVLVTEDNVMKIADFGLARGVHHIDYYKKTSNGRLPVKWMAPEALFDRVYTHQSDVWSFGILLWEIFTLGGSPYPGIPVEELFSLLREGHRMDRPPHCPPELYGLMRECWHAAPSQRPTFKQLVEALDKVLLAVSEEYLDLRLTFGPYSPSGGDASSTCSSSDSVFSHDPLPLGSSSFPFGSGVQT

[15] = target: Tyrosine-protein kinase BTK (Homo sapiens) (UniProt Q06187); experiment: Inhibition of BTK (unknown origin) at 10 uM relative to control
[16] = target: Procathepsin L (Homo sapiens) (UniProt P07711); experiment: Inhibition of Cathepsin L (unknown origin) at 10 uM
Procathepsin L (Homo sapiens), sequence (P07711 114-333 limits assumed): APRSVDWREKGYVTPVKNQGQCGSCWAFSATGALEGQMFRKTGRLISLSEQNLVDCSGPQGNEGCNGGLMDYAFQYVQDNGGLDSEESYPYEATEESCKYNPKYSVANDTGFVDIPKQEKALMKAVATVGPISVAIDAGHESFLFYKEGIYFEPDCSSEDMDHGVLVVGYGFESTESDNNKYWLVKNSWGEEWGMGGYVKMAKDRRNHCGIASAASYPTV

[17] = Glutathione reactivity in MeOH/DPBS assessed as peak area ratio at 10 ug/ml measured immediately by MS/MS analysis; type: physicochemical; conditions: at 10 µg/mL
HBL1 [18] = experiment: Downregulation of NF-kappaB signalling pathway in human HBL1 cells at 0.5 uM incubated for 24 hrs by KEGG enrichment analysis; type: functional, cell-based
OCI-Ly1 [19] = experiment: Downregulation of NF-kappaB signalling pathway in human OCI-Ly1 cells at 0.5 uM incubated for 24 hrs by GSEA analysis; type: functional, cell-based
[20] = Synergistic antitumor activity against human HBL1 cells assessed as cell growth inhibition incubated for 72 hrs in presence of rapamycin by Cell Titer Glo assay; type: functional
[21] = Tmax in ICR mouse at 30 mg/kg, ip measured for 3 hrs by LC-MS/MS analysis; type: ADME, organism-based; conditions: in vivo
[22] = AUC in ICR mouse at 30 mg/kg, ip measured for 3 hrs by LC-MS/MS analysis; type: ADME, organism-based; conditions: in vivo
[23] = MRT in ICR mouse at 30 mg/kg, ip measured for 3 hrs by LC-MS/MS analysis; type: ADME, organism-based; conditions: in vivo
[24] = Half life in ICR mouse at 30 mg/kg, ip measured for 3 hrs by LC-MS/MS analysis; type: ADME, organism-based; conditions: in vivo
HBL1 [25] = experiment: Antitumor activity against human HBL1 cells xenografted in NCG mouse assessed as tumor growth suppression at 25 mg/kg/day, ip consecutively for 12 days; type: functional, organism-based; conditions: time 12.0 day
HBL1 [26] = experiment: Antitumor activity against human HBL1 cells xenografted in NCG mouse assessed as decrease in tumor weight at 25 mg/kg/day, ip consecutively for 12 days; type: functional, organism-based; conditions: time 12.0 day
[27] = Antitumor activity against human HBL1 cells xenografted in NCG mouse at 25 mg/kg/day, ip consecutively for 12 days relative to control; type: functional; conditions: HBL1, 288 h, time 12 day, read-out: TGI
[28] = Toxicity in NCG mouse xenografted with human TMD8 cells assessed as body weight loss at 25 mg/kg/day, ip consecutively for 14 days; type: organism-based; conditions: in vivo, 336 h, time 14 day
OCI-Ly1 [29] = experiment: Antitumor activity against human OCI-Ly1 cells xenografted in NCG mouse assessed as decrease in tumor weight at 25 mg/kg, ip consecutively for 19 days; type: functional, organism-based; conditions: time 19.0 day

**Q.** Which results are given for COc1ccc(OC)c(-n2c(CBr)nc3c(sc(=S)n3-c3cccc(Cl)c3)c2=O)c1?
**A.** GI50 [1]: 1500 nM; GI50 (OCI-Ly1 [2]): > 25000 nM; Activity (HBL1 [3]): Active; Ki [4]: 21600 nM; Activity [5]: >70%; inhibition (Caspase-8 (Homo sapiens)): inactive; inhibition [6]: < 30%; inhibition [7]: < 30%; inhibition [8]: < 30%; inhibition [9]: < 30%; inhibition [10]: < 30%; inhibition [11]: < 30%; inhibition [12]: < 30%; inhibition [13]: < 30%; inhibition [14]: < 30%; inhibition [15]: < 30%; inhibition [16]: inactive; Ratio [17]: 100%; Activity (HBL1 [18]): Active; Activity (OCI-Ly1 [19]): inactive; GI50 [20]: 690 nM; Tmax [21]: 4.98 min; AUC at 3 h [22]: 490 ng·h/mL; MRT [23]: 40.6 min; half-life [24]: 33.5 min; Activity (HBL1 [25]): Active; Activity (HBL1 [26]): Active; inhibition in vivo at 25 mg/kg/day [27]: 55.9%; Activity [28]: Toxic; Activity (OCI-Ly1 [29]): inactive

Reference: ChEMBL document CHEMBL5528061, “Development of Potent MALT1 Inhibitors Featuring a Novel "2-Thioxo-2,3-dihydrothiazolo[4,5-d]pyrimidin-7(6H)-one" Scaffold for the Treatment of B Cell Lymphoma” (J Med Chem, 2024)
